Blank lines part the entries; values can stand above or below the molecule they belong to.
Legend:
[1] = target: T1, ACR-23 (acetylcholine receptor like-23) (Caenorhabditis elegans, UniProt G5EG88); experiment: cryo-EM structure ([…] Å, betaine co-bound); EC50 by whole-cell patch clamp in HEK293 cells; type: cell-based
T1 construct: homo-pentamer; M3-M4 loop (residues Lys 386 to Gln 437) replaced with bRIL, C-terminal strep tag (cryo-EM); ACR-23 with C-terminal GFP in HEK293 cells (EC50)

[2] = target: T1, ACR-23 (acetylcholine receptor like-23); experiment: cryo-EM structure ([…] Å); EC50 by whole-cell patch clamp in HEK293 cells; type: cell-based
[3] = target: engineered ACR-23 (acetylcholine receptor like-23), M3-M4 loop replaced with bRIL (Caenorhabditis elegans | not stated) (UniProt G5EG88); experiment: cryo-EM structure; single particle cryo-EM of purified ACR-23 in DDM/CHS, 20 mM Tris pH 8.0, 150 mM NaCl; apo, with 1.5 mM betaine, or with 1.5 mM betaine and 5 mM monepantel; homo-pentamer in all three states

T1 sequence (G5EG88 20-545): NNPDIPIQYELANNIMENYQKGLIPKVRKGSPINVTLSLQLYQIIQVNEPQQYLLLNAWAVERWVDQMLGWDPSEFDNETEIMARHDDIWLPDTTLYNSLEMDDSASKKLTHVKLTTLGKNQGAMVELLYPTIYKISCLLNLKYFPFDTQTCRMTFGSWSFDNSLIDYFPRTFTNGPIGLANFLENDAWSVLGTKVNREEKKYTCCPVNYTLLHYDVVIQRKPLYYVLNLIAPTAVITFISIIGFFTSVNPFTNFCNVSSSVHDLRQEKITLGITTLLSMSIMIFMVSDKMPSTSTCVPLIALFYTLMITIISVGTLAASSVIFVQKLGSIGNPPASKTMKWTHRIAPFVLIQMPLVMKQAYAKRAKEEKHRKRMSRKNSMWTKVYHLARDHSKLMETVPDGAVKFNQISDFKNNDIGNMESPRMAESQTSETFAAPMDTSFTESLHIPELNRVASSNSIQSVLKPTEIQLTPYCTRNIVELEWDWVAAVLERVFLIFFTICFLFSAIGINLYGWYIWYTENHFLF

Molecule: CC(C#N)(COc1cc(C#N)ccc1C(F)(F)F)NC(=O)c1ccc(SC(F)(F)F)cc1 (racemic) [monepantel]
EC50 [1]: 2.13 µM

EC50 [2]: ~34.4 µM
Molecule: C[N+](C)(C)CC(=O)O [betaine]

stoichiometry N [3]: 5
Molecule: engineered ACR-23 (acetylcholine receptor like-23), M3-M4 loop replaced with bRIL (from UniProt G5EG88 20-385; G5EG88 438-545)

— PMC11377560, “Structural insights into the molecular effects of the anthelmintics monepantel and betaine on the Caenorhabditis elegans acetylcholine receptor ACR-23” (The EMBO Journal, 2024)
